Experimental findings from the NIST ThermoML archive (doi:10.1021/je201032t) are described below.

Numbers after ± are expanded uncertainties.

For data set [1] the following is noted: Liquid, Ebulliometric method (Recirculating still).
The nature of data set [2]: refractive index (Na D-line) (dimensionless). The note with it: 293.15 K; 101.33 kPa; Liquid; Standard Abbe refractometry.

Turning to `CCCCCCCCCCCC` [dodecane], the “vapor or sublimation pressure” value in data set [1] (323 K) is given as 0.12 kPa; in data set [1] (343.4 K), 0.46 kPa; in data set [1] (353.2 K), 0.73 ± 1.2 kPa; in data set [1] (363.1 K), 1.31 ± 1.2 kPa; in data set [1] (369.2 K) it was 1.76 ± 1.2 kPa. The refractive index in data set [2] is 1.4192 ± 0.0007.

Regarding `CCCO` [propan-1-ol], the “vapor or sublimation pressure” value in data set [1] (323 K) was 12.11 ± 1.2 kPa; in data set [1] (343.4 K), 32.82 ± 1.2 kPa; in data set [1] (353.2 K), 50.82 ± 1.3 kPa; in data set [1] (363.1 K) it was 76.67 ± 1.4 kPa; in data set [1] (369.2 K), 96.66 ± 1.4 kPa. Besides, the refractive index in data set [2] is recorded as 1.382 ± 0.0007.

A word on the vapor or sublimation pressure: it is the pressure of vapour in equilibrium with the condensed phase. In general, refractive index refers to the speed of light in vacuum divided by its phase velocity in the sample.
